Test results as given in US6555556B1, “Benzamidine derivatives” (Sankyo Company, Limited, priority 1999, dated 2003).
Structures can show the parent of a compound that is named as a salt.

target: T1, bovine trypsin (Bos taurus, UniProt P00760); assay: Determination of anti-trypsin activity (chromogenic substrate S-2222); assay type: biochemical; settings: bovine trypsin 0.25 μg-protein/ml, 0.4 mM S-2222, tris-HCl buffer pH 8.4, room temperature, 5 min, absorbance 405 nm
T1 construct: purchased Sigma
T1 sequence (P00760 24-246): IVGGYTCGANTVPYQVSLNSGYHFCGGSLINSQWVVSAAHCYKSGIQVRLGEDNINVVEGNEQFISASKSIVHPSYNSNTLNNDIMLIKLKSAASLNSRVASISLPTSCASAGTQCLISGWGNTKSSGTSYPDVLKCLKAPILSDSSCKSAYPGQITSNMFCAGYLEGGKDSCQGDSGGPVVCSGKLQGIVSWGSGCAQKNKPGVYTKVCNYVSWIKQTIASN
Protocol: Anti-trypsin activity was determined according to the method of Taniuchi et al. [Thromb. Haemost., 79, 543 (1998)] with slight modifications. First, 85 μl of a 50 mM tris-HCl buffer (pH 8.4) containing 0.9% NaCl, 5 μl of chromogenic substrate, S-2222 (final concentration of 0.4 mM, Daiichi Pure Chemicals Co., Ltd., Tokyo, Japan) and 5 μl of a test compound were mixed, and the reaction was started by adding 5 μl of bovine trypsin (final concentration of 0.25 μg-protein/ml, Sigma). Distilled water instead of the test compound was added to the buffer in the control group. The reaction mixture in a total volume of 0.1 ml was incubated at room temperature. The absorbance at 405 nm was measured continuously using a 96-well microplate reader (model 550, BioRad), and the increase in absorbance for 5 min was calculated as an index of trypsin activity.

First: CC(=N)N1CCC(Oc2ccc(N(C/C=C/c3cccc(C(=N)N)c3)S(=O)(=O)CC(=O)O)cc2Cl)CC1 [Example 9, N-[4-(1-Acetimidoylpiperidin-4-yloxy)-3-chlorophenyl]-N-[3-(3-amidinophenyl)-2-(E)-propenyl]sulfamoylacetic Acid Dihydrochloride]
Second: CC(=N)N1CCC(Oc2ccc(N(C/C=C/c3cccc(C(=N)N)c3)S(=O)(=O)CC(=O)O)cc2F)CC1 [Example 11, N-[4-(1-Acetimidoylpiperidin-4-yloxy)-3-fluorophenyl]-N-[3-(3-amidinophenyl)-2-(E)-propenyl]sulfamoylacetic Acid Dihydrochloride]
The IC50 of the first is 1.6-fold lower: 520 nM for the first, 840 nM for the second. The first is the more potent here.

target: T2, human factor Xa (Homo sapiens, UniProt P00742); assay: Determination of anti-factor Xa activity (chromogenic substrate S-2222); assay type: biochemical; settings: 0.25 unit/ml human factor Xa, 0.4 mM S-2222, tris-HCl buffer pH 8.4, 5 min at room temperature, absorbance 405 nm; read-out: Factor Xa inhibitory activity [IC50 (nM)]
T2 construct: purchased Cosmo Bio Co., Ltd, Tokyo, Japan
Protocol: Anti-factor Xa activity was determined according to the method of Hara et al. (Thromb. Haemost, 71, 314 (1994), with slight modifications. A 50 mM tris-HCl buffer (pH 8.4) containing 0.9% NaCl, 0.4 mM chromogenic substrate, S-2222 (Daiichi Pure Chemicals Co., Ltd., Tokyo, Japan), and a test compound were mixed, and the reaction was started by adding 0.25 unit/ml human factor Xa (Cosmo Bio Co., Ltd, Tokyo, Japan). Distilled water instead of the test compound was added to the buffer in the control group. The reaction mixture in a total volume of 0.1 ml was incubated for 5 min at room temperature. The absorbance at 405 nm was measured continuously using a 96-well microplate reader (model 550, BioRad), and the increase in absorbance for 5 min was calculated as an index of factor Xa activity.

T2 sequence (P00742 235-488 limits assumed): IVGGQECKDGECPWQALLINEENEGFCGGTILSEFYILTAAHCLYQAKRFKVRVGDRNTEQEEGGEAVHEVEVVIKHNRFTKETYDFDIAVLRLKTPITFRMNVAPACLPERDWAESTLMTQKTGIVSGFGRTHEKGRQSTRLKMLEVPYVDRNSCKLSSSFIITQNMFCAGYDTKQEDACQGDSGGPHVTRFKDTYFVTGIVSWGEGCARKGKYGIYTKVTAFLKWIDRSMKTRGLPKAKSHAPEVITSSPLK
T2 sequence (P00742 41-179 partner limits assumed): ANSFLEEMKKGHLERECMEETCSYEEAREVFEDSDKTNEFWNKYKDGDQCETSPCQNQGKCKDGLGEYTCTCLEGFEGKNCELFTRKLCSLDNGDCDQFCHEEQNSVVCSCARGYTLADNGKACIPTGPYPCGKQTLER

`CC(=N)N1CCC(Oc2ccc(N(C/C=C/c3cccc(C(=N)N)c3)S(=O)(=O)CC(=O)O)cc2C(N)=O)CC1` [Example 36, N-[4-(1-Acetimidolpiperdin-4-yloxy)-3-carbamoylphenyl]-N-[3-(3-amidinophenyl)-2-(E)-propenyl]sulfamoylacetic Acid Dihydrochloride] and `CNC(=O)c1cc(N(C/C=C/c2cccc(C(=N)N)c2)S(=O)(=O)CC(=O)O)ccc1OC1CCN(C(C)=N)CC1` [Example 38, N-[4-(1-Acetimidoylpiperidin-4-yloxy)-3-(N′-methylcarbamoyl)phenyl]-N-[3-(3-amidinophenyl)-2-(E)-propenyl]sulfamoylacetic Acid Dihydrochloride] are within 1.5-fold of each other in IC50: 7.1 nM for the first, 8.7 nM for the second.

`CC(=N)N1CCC(Oc2ccc(N(C/C=C/c3cccc(C(=N)N)c3)S(=O)(=O)CC(=O)O)cc2Cl)CC1` [Example 9, N-[4-(1-Acetimidoylpiperidin-4-yloxy)-3-chlorophenyl]-N-[3-(3-amidinophenyl)-2-(E)-propenyl]sulfamoylacetic Acid Dihydrochloride] and `CC(=N)N1CCC(Oc2ccc(N(C/C=C/c3cccc(C(=N)N)c3)S(=O)(=O)CC(=O)O)cc2F)CC1` [Example 11, N-[4-(1-Acetimidoylpiperidin-4-yloxy)-3-fluorophenyl]-N-[3-(3-amidinophenyl)-2-(E)-propenyl]sulfamoylacetic Acid Dihydrochloride] are within 1.5-fold of each other in IC50: 7.4 nM for the first, 8.1 nM for the second.

`CCOC(=O)CS(=O)(=O)N(C/C=C/c1cccc(C(=N)N)c1)c1ccc(OC2CCN(C(C)=N)CC2)cc1` [Example 3, Ethyl N-[4-(1-Acetimidoylpiperidin-4-yloxy)phenyl]-N-[3-(3-amidinophenyl)-2-(E)-propenyl]sulfamoylacetate Dihydrochloride] and `CC(=N)N1CCC(Oc2ccc(N(C/C=C/c3cccc(C(=N)N)c3)S(=O)(=O)CC(=O)O)cc2)CC1` [Example 4, N-[4-(1-Acetimidoylpiperidin-4-yloxy)phenyl]-N-[3-(3-amidinophenyl)-2-(E)-propenyl]sulfamoylacetic Acid Dihydrochloride] are within 1.5-fold of each other in IC50: 8.6 nM for the first, 6.4 nM for the second.

`CCOC(=O)CS(=O)(=O)N(C/C(F)=C/c1cccc(C(=N)N)c1)c1ccc(OC2CCN(C(C)=N)CC2)cc1` [Example 56, Ethyl N-[4-(1-Acetimidoylpiperidin-4-yloxy)phenyl]-N-[3-(3-amidinophenyl)-2-fluoro-2-(Z)-propenyl]sulfamoylacetate Dihydrochloride] and `CC(=N)N1CCC(Oc2ccc(N(C/C(F)=C/c3cccc(C(=N)N)c3)S(=O)(=O)CC(=O)O)cc2)CC1` [Example 57, N-[4-(1-Acetimidoylpiperidin-4-yloxy)phenyl]-N-[3-(3-amidinophenyl)-2-fluoro-2-(Z)-propenyl]sulfamoylacetic Acid Dihydrochloride] are within 1.5-fold of each other in IC50: 10 nM for the first, 9.3 nM for the second.

Going from `CC(=N)N1CCC(Oc2ccc(N(CCOc3cccc(C(=N)N)c3)S(=O)(=O)CC(=O)O)cc2)CC1` [Compound A, N-[4-[1-acetimidoyl-4-piperidyloxy]phenyl]-N-[2-(3-amidinophenoxy)ethyl]sulfamoylacetic acid dihydrochloride salt, reference compound] to `CC(=N)N1CCC(Oc2ccc(N(C/C=C/c3cccc(C(=N)N)c3)S(=O)(=O)CC(=O)O)cc2C)CC1` [Example 55, N-[4-(1-Acetimidoylpiperidin-4-yloxy)-3-methylphenyl]-N-[3-(3-amidinophenyl)-2-(E)-propenyl]sulfamoylacetic Acid Dihydrochloride], the IC50 falls from 130 nM to 5 nM (26-fold). The second is the more potent here.

`CC(=N)N1CCC(Oc2ccc(N(C/C=C/c3cccc(C(=N)N)c3)C(C)C)cc2)CC1` [Example 22, 3-[3-[N-[4-(1-Acetimidoylpiperidin-4-yloxy)phenyl]-N-isopropylamino]-1-(E)-propenyl]benzamidine Trihydrochloride] and `CC(=N)N1CCC(Oc2ccc(N(C/C=C/c3cccc(C(=N)N)c3)CCO)cc2)CC1` [Example 28, 3-[3-[N-[4-(1-Acetimidoylpiperidin-4-yloxy)phenyl]-N-(2-hydroxyethyl)amino]-1-(E)-propenyl]benzamidine Trihydrochloride] are within 1.5-fold of each other in IC50: 8.3 nM for the first, 9 nM for the second.

Compared with `CC(=N)N1CCC(Oc2c(F)cc(N(C/C=C/c3cccc(C(=N)N)c3)S(=O)(=O)CC(=O)O)cc2F)CC1` [Example 47, N-[4-(1-Acetimidoylpiperidin-4-yloxy)-3,5-difluorophenyl]-N-[3-(3-amidinophenyl)-2-(E)-propenyl]sulfamoylacetic Acid Dihydrochloride], `CCOC(=O)CS(=O)(=O)N(C/C=C/c1cccc(C(=N)N)c1)c1cc(F)c(OC2CCN(C(C)=N)CC2)c(F)c1` [Example 46, Ethyl N-[4-(1-Acetimidoylpiperidin-4-yloxy)-3,5-difluorophenyl]-N-[3-(3-amidinophenyl)-2-(E)-propenyl]sulfamoylacetate Dihydrochloride] is 1.8-fold higher in IC50: 3.7 nM for the first, 6.8 nM for the second.

`CCOC(=O)CS(=O)(=O)N(C/C=C/c1cccc(C(=N)N)c1)c1ccc(OC2CCN(C(C)=N)CC2)c(Cl)c1` [Example 8, Ethyl N-[4-(1-Acetimidoylpiperidin-4-yloxy)-3-chlorophenyl]-N-[3-(3-amidinophenyl)-2-(E)-propenyl]sulfamoylacetate Dihydrochloride] and `CCOC(=O)CS(=O)(=O)N(C/C=C/c1cccc(C(=N)N)c1)c1ccc(OC2CCN(C(C)=N)CC2)c(F)c1` [Example 10, Ethyl N-[4-(1-Acetimidoylpiperidin-4-yloxy)-3-fluorophenyl]-N-[3-(3-amidinophenyl)-2-(E)-propenyl]sulfamoylacetate Dihydrochloride] are within 1.5-fold of each other in IC50: 4.5 nM for the first, 4.6 nM for the second.

`CC(=N)N1CCC(Oc2c(Cl)cc(N(C/C=C/c3cccc(C(=N)N)c3)S(=O)(=O)CC(=O)O)cc2Cl)CC1` [Example 49, N-[4-(1-Acetimidoylpiperidin-4-yloxy)-3,5-dichlorophenyl]-N-[3-(3-amidinophenyl)-2-(E)-propenyl]sulfamoylacetic Acid Dihydrochloride] and `CC(=N)N1CCC(Oc2ccc(N(C/C=C/c3cccc(C(=N)N)c3)S(=O)(=O)CC(=O)O)cc2C(C)C)CC1` [Example 34, N-[4-(1-Acetimidoylpiperidin-4-yloxy)-3-isopropylphenyl]-N-[3-(3-amidinophenyl)-2-(E)-propenyl]sulfamoylacetic Acid Dihydrochloride] are within 1.5-fold of each other in IC50: 9.8 nM for the first, 10 nM for the second.

First: CC(=N)N1CCC(Oc2ccc(N(C/C=C/c3cccc(C(=N)N)c3)S(=O)(=O)CC(=O)O)cc2C(F)(F)F)CC1 [Example 54, N-[4-(1-Acetimidoylpiperidin-4-yloxy)-3-trifluoromethylphenyl]-N-[3-(3-amidinophenyl)-2-(E)-propenyl]sulfamoylacetic Acid Dihydrochloride]
Second: CCOC(=O)CS(=O)(=O)N(C/C=C/c1cccc(C(=N)N)c1)c1ccc(OC2CCN(C(C)=N)CC2)c(Br)c1 [Example 31, Ethyl N-[4-(1-Acetimidoylpiperidin-4-yloxy)-3-bromophenyl]-N-[3-(3-amidinophenyl)-2-(E)-propenyl]sulfamoylacetate Dihydrochloride]
The IC50 of the first is 2.2-fold lower: 4.6 nM for the first, 10 nM for the second.

`CCOC(=O)CS(=O)(=O)N(C/C=C/c1cccc(C(=N)N)c1)c1ccc(OC2CCN(C(C)=N)CC2)c(C(=O)OCC)c1` [Example 29, Ethyl N-[4-(1-Acetimidoylpiperidin-4-yloxy)-3-ethoxycarbonylphenyl]-N-[3-(3-amidinophenyl)-2-(E)-propenyl]sulfamoylacetate Dihydrochloride] and `CCOC(=O)CS(=O)(=O)N(C/C=C/c1cc(C(=N)N)ccc1O)c1ccc(OC2CCN(C(C)=N)CC2)c(Cl)c1` [Example 41, Ethyl N-[4-(1-Acetimidoylpiperidin-4-yloxy)-3-chlorophenyl]-N-[3-(5-amidino-2-hydroxyphenyl)-2-(E)-propenyl]sulfamoylacetate Dihydrochloride] are within 1.5-fold of each other in IC50: 9 nM for the first, 7.5 nM for the second.

Work on `CCOC(=O)CN(C/C=C/c1cccc(C(=N)N)c1)c1ccc(OC2CCN(C(C)=N)CC2)cc1` [Example 23, Ethyl 2-[N-[4-(1-Acetimidoylpiperidin-4-yloxy)phenyl]-N-[3-(3-amidinophenyl)-2-(E)-propenyl]amino]acetate Trihydrochloride] yielded an IC50 of 8.3 nM.
